The test system of assay [1] is diabetic ulcer (non-healing wound). Description: Case studies: powdered wound composition applied topically to infected non-healing wounds / diabetic ulcers of patients. The format is in vivo, human. The text has this: Thereafter, the wound compositions may be applied to the wound at least once a week until such time as the wound is satisfactorily healed. In one embodiment, a wound composition is applied once a week (after the initial daily application) for a period of at least seven weeks. It is understood that prior to each application, the wound may be rinsed with a sterile solution, such as saline, and allowed to dry. Thereafter, a wound composition may be applied and the wound wrapped in a suitable dressing.
A treatment plan was established for the patient. Under the treatment plan, the patient received: 1) Insulin 70/30 (Novoline) 50 IU morning, 25 IU night; and 2) intravenueously, Co-Amoxiclav 1.2 g+Gentamicin 80 mg+Metronidazole 400 mg in 100 ml N Saline/30 min (every 8 hours). After the injection of the intravenous antibiotics, the patient began taking oral antibiotics: 1) Co-Amoxiclav 625 mg (2 tablets) (twice daily); 2) Ciprofloxacin 500 mg once daily for 2 weeks; and 3) Ibuprofen 600 mg for 5 days (every 8 hours). Thereafter, the wound was cleaned with saline solution. A wound composition comprising a mixture of 300 mg powdered phenyloin (Dilantin®) and 500 mg of powdered Vitamin C was administered over the wound and the wound was dressed. The patient was advised to come back on a daily basis for dressing of the wound and reapplication of the wound composition.
The patient returned for 9 consecutive visits over the next nine days. Thereafter, the patient began weekly visits. With each visit, the wound was cleaned with saline solution and the powdered wound composition was applied topically to the wound, and redressed.
A treatment plan was established for the patient. Under the treatment plan, the patient received: 1) Insulin 70/30 (Novoline) 40 IU morning, 20IU night; and 2) intravenueously, Co-Amoxiclav 1.2 g+Gentamicin 80 mg+Metronidazole 400 mg in 100 ml N Saline/30 min. every 8 hours. After the injection of the intravenous antibiotics, the patient began taking oral antibiotics: 1) Co-Amoxiclav 625 mg (2 tablets) twice daily 2) Ciprofloxacin 500 mg once daily for 2 weeks; and 3) Ibuprofen 600 mg every 8 hours.; and (4) Co-diovan tablets (valsartan and hydrochlorothiazide) 80 mg/12.5 mg daily. Thereafter, the wound was cleaned with saline solution. A wound composition comprising 300 mg powdered phenyloin (Dilantin®) was administered over the wound and the wound was dressed. The patient was advised to come back on a daily basis for dressing of the wound and reapplication of the wound composition.
The patient returned for 9 consecutive visits over the next nine days. Thereafter, the patient began weekly visits. With each visit, the wound was cleaned with saline solution and the powdered wound composition was applied topically to the wound, and redressed. […] No further treatment was prescribed to the patient.

The next assay deals with diabetic ulcers. The following applies: patients with diabetic ulcers; control group 45 days; cited from earlier work.
[2] abbreviates: one patient per Example, topical, weekly application, week 8.

Molecules are shown by their SMILES. Several values for one entry are separate records, joined by “and”; a condition that tells them apart may be missing. Equal entries are not always repeated. Entries after “also recorded” stand apart in the source; their conditions may differ.

On to `O=C1NC(=O)C(c2ccccc2)(c2ccccc2)N1` [phenyloin, 5.5-diphenyl-2,4-imidazolidinedione], for which the “portion of the wound healed” value in assay [1] (Example 16 patient, topical, weekly application, week 13) is “approximately 60%”; in assay [1] (setting [2]) it was “approximately 35%; also recorded: approximately 25%”; in assay [1] (one patient per Example, topical, weekly application, week 9), “approximately 40%”; in assay [1] (one patient per Example, topical, weekly application, week 10) it was “approximately 60%”. The “appearance of the wound” value in assay [1] (Example 16 patient, topical, weekly application, weeks 3-5) is given as “continued to appear generally healthy”; in assay [1] (one patient per Example, topical, weekly application, weeks 2-4), “continued to appear generally healthy”. The “recurrence of the wound after healing” value in assay [1] (one patient per Example, Dilantin alone) is reported as “the wound returned in substantially the same location; also recorded: the wound returned in approximately the same location”. For the same compound, the “time the wound took to heal completely” value in assay [1] (one patient per Example, Dilantin alone, topical) was “approximately 20 weeks and ~27 weeks and ~22 weeks and approximately 25 weeks”. Moreover, the amputation outcome in assay [1] (one patient per Example, after treatment course) was “need to amputate the right leg below the knee; also recorded: need to amputate the left leg below the knee”. The “new skin formation (wound healing by secondary intention)” value in assay [1] (one patient per Example, topical, daily visits for 9 days then weekly, week 1) is “signs of new skin formation”. The granulation tissue formed result in assay [1] (setting [2]) was “approximately 20%”. Further, in assay [1] (one patient per Example, topical, weekly application, weeks 5-7), the “healing of the wound as noted” value was “beginning to heal very well, but was very slow healing”. Also, in the assay on diabetic ulcers, the mean healing time is 21 days.
